Measured values taken from US20110014204A1, “Cancer Chemoprevention Strategy Based on Loss of Imprinting of IGF2” (priority 2006, published 2011).

Legend:
[1] = tested on: aberrant crypt foci (ACF); experiment: Azoxymethane (AOM)-induced aberrant crypt foci (ACF) in LOI(+) and LOI(−) mice, NVP-AEW541 by oral gavage; format: in vivo; conditions: AOM intraperitoneally weekly for 3 weeks, sacrificed at 5 weeks, no inhibitor
Method: ACF formation in the colon was induced by AOM intraperitoneal injection, and treatment with NVP-AEW541 was by gastric gavage. Each ACF was formed of 1-4 aberrant crypts, and the number of ACF (# of ACF), the number of total aberrant crypts (# of AC), and the average number of aberrant crypts per ACF were measured.
(A) ACF formation in the colon was induced by AOM i.p. injection, and treatment with NVP-AEW541 was by gastric […]. Each ACF was formed of […] aberrant crypts, and the number of ACF (# of ACF), the number of total aberrant crypts (# of AC), and the average number of aberrant crypts per ACF were measured. LOI(+) AOM mice (dark gray bars), LOI(−) AOM mice (black bars), LOI(+) AOM NVP mice (light gray bars), LOI(−) AOM NVP mice (gray bars). (B) The number of ACF and the number of total aberrant crypts (AC) were corrected by colon surface area (cm^2).
7 week old LOI(+) and LOI(−) littermate controls were treated with AOM at 10 mg/kg body weight intraperitoneally once per week for three weeks, and euthanized 5 weeks after the first dose of AOM. The entire colon was resected from mice after laparotomy, flushed with PBS, filled with 10% buffered formalin (Sigma) for one minute, opened longitudinally, fixed flat between filter paper in formalin at 4° C. overnight, rinsed with PBS, and stained with 0.2% methylene blue in saline. The number of ACF per colon and the number of aberrant crypts per ACF were scored under a light microscopy as previously described Bird, Cancer Lett (1987) 37:147-151). NVP-AEW541 (50 mg/kg) was administered by oral gavage, beginning 1 week before AOM treatment, and NVP-AEW541 was administered 7 days/week, twice a day for 5 weekdays and once a day for 2 weekend days, for 6 weeks until sacrifice.
Because of known strain variation in progression of these lesions, littermate controls were treated with and without LOI, in which the dams were heterozygous for a deletion of the H19 differentially methylated region (DMR); inheritance of a maternal allele lacking the DMR leads to activation of the normally silent allele of Igf2 [LOI(+)], while inheritance of a wild type maternal allele leads to normal imprinting [LOI(−)]. Eight LOI(+) and 14 LOI(−) mice were given AOM intraperitoneally weekly for 3 weeks, sacrificed at 5 weeks after the first dose, and ACF were scored by the method of Bird (1987). Histologic examination of colons from AOM-treated mice confirmed the presence of ACF, with hyperproliferative features including increased mitosis, crypt enlargement and crypt disarray (FIG. 12). […] An additional intriguing finding in AOM-treated LOI(+) mice was cystically dilated crypts lined by enlarged cells with atypical nuclei and that contained necrotic debris, that were reminiscent of sessile serrated adenomas (SSAs) seen in the human colon (FIG. 12). SSAs also show crypt dilatation in association with cytologic atypia and are currently of immense interest for their recently recognized association with colorectal cancer (Snover et al., Am J Clin Pathol (2005) 124:380-391). It will thus be of interest to determine whether SSAs are associated with LOI in the human population.
An additional 9 LOI(+) mice and 9 LOI(−) control littermates were similarly exposed to AOM, adding treatment with NVP-AEW541, an IGF1R inhibitor, at a dose of 50 mg/kg by oral gavage daily for 6 weeks (twice daily except daily on weekends). […] Thus, LOI of lgf2 increases the sensitivity to AOM through an IGF1R-dependent mechanism.
Eight LOI(+) and 14 LOI(−) mice were given AOM intraperitoneally weekly for 3 weeks, sacrificed at 5 weeks after the first dose, and ACFs were scored as described (Bird (1987)). Histologic examination of colons from AOM-treated mice confirmed the presence of ACFs, with hyperproliferative features including increased mitosis, crypt enlargement and crypt disarray (FIG. 14A, B). […]

mouse ES cells = experiment: IGF2 stimulation of mouse ES cells, gene expression by real-time RT-PCR, with or without NVP-AEW541; format: cell-based; conditions: 800 ng/ml mouse Igf2 recombinant protein
Method: Mouse ES cells were cultured in defined medium and treated with 800 ng/ml mouse lgf2 protein. Gene expression was analyzed by real-time RT-PCR and normalized to β-actin. Shown is the expression level without (black boxes) and with (gray boxes) the IGF1R inhibitor 3 μM NVP-AEW541 (a pyrrolo-2,3d-pyrimidine), normalized to time 0. The bars indicate standard error.
Mouse ES cells were cultured in defined medium and treated with 800 ng/ml mouse lgf2 protein. Gene expression was analyzed by real-time RT-PCR and normalized to β-actin. Shown is the expression level without (black boxes) and with (pink boxes) the IGF1R R inhibitor 3 μM NVP-AEW541, normalized to time 0. The bar represents standard error.
For IGF2 stimulation, wild type ES cells were isolated as described above, and cultured in ESGRO Complete Basal Medium with 800 ng/ml of mouse Igf2 recombinant protein (StemCell Technologies), with or without 3 μM NVP-AEW541 (Novartis). Cells were washed with PBS twice and RNA was extracted using the RNeasy Kit (QIAGEN) at Oh, 3 h, 6 h, 10 h, and 24 h. Gene expression was assayed by real-time quantitative RT-PCR as described above.
It remained theoretically possible that the observed difference in gene expression simply reflected the over-representation of progenitor cells within the intestinal crypts, rather than a change in cellular gene expression per se. To confirm the latter, mouse embryonic stem (ES) cells were derived and plated in ESGRO Complete Clonal Grade defined medium (Chemicon), which contains no IGF2 and allows growth of undifferentiated ES cells without a feeder layer, which was done with or without 800 ng/ml of mouse Igf2 recombinant protein (StemCell Technologies). Consistent with the microarray experiments, Igf2 induced a 50% and 56% increase in Cdc6 gene expression at 3 and 6 hours, respectively, and 40% and 25% at 10 and 24 hours, respectively (FIG. 3).

Akt/PKB = experiment: Microfluidic chamber single cell immunocytochemistry of Akt/PKB activation (phospho-Akt Ser 473) in LOI(+) and LOI(−) MEF cells; format: cell-based, mouse
Method: (A) Akt/PKB activation was assayed by single cell immunocytochemistry with an antibody to phosphorylated Akt (Ser 473), in a monolithic 2-layer PDMS chip sealed with a glass coverslip, with defined media delivery controlled by a multiplexed system of valves. Live LOI(+) and LOI(−) MEF cells were stimulated within the microfluidic chips with varying doses of IGF2, with measurements at multiple time points at each IGF2 concentration. […] For each cell type, IGF2 concentration, and time point, at least 200 individual cellular measurements were obtained by digital imaging and analysis. (B) Inhibition of Akt activation by NVP-AEW541. The cells were assayed as in (A) at 60 min after coincubation with 400 ng/ml IGF2 and 3 μM NVP-AEW541 and compared with the unstimulated control. Each bar is based on measurements of >400 cells. Asterisk indicates statistical difference vs LOI(+) control (t test, P<0.001) (C) Single cell analysis of ERK activation by IGF2 in LOI(+) and LOI(−) MEF cells. Erk activation was assayed by single immunocytochemistry within microfluidic chips using an antibody to phosphorylated Erk2 from Upstate (Charlottesville, Va.). LOI(+) cells (gray) and LOI(−) cells (black) were exposed to 400 ng/ml IGF2 for indicated times. […] Error bars represent SD. Standard error bars are completely subsumed by the symbols on this scale. (D) Gene expression levels in mouse embryonic fibroblasts. Quantitative real-time PCR was performed on LOI(+) and LOI(−) MEF cells, with expression normalized to transferring receptor expression. The expression level in LOI(+) samples (black) relative to LOI(−) samples (gray) is shown. The bars indicate standard error.
The immunostaining automation device consists of a monolithic 2-layer PDMS chip sealed with a glass coverslip, fabricated using techniques described previously (Unger et al., Science 288 (2000) 288:113-116). Multiplexing valves were actuated by pressure lines connected to off-device solenoid valves. The chip architecture, performance and validation are all described in a separate manuscript submitted for publication. The glass substrate of the cell culture chamber was coated by introducing 0.1% gelatin (Sigma) into the device for at least 30 minutes, then cells were introduced and allowed to attach for 3 hours. IGF2 (StemCell Technologies) dissolved in cell media was introduced to each chamber at different times so that the end of all stimulation periods coincided. To end the experiment, ice-cold PBS (Invitrogen) was introduced into all chambers followed immediately by 4% paraformaldehyde (Electron Microscopy Systems) for 20 minutes. Cells were permeabilized with 0.1% Triton X-100 (Sigma) for 5 min and blocked with 10% goat serum (Sigma), with PBS washes in between. […] Using custom MATLAB (Mathworks) programs, the images were […], stitched together, and quantified. […] For each cell type and time point, 200-300 cells were analyzed in this manner to ensure statistical significance.
Since both the endogenous IGF2 and IGF2 used in the MEF experiments are susceptible to IGF2 binding protein (IBP)-based inactivation, the dose of an IBP-resistant IGF2 variant was determined producing similar levels of Akt activation. […]

IGF1R = IGF1R (Homo sapiens, UniProt P08069); conditions: previously estimated; read-out: kD of IGF1R for IGF2; cited from earlier work
IGF1R, sequence (P08069 31-736 limits assumed, species assumed): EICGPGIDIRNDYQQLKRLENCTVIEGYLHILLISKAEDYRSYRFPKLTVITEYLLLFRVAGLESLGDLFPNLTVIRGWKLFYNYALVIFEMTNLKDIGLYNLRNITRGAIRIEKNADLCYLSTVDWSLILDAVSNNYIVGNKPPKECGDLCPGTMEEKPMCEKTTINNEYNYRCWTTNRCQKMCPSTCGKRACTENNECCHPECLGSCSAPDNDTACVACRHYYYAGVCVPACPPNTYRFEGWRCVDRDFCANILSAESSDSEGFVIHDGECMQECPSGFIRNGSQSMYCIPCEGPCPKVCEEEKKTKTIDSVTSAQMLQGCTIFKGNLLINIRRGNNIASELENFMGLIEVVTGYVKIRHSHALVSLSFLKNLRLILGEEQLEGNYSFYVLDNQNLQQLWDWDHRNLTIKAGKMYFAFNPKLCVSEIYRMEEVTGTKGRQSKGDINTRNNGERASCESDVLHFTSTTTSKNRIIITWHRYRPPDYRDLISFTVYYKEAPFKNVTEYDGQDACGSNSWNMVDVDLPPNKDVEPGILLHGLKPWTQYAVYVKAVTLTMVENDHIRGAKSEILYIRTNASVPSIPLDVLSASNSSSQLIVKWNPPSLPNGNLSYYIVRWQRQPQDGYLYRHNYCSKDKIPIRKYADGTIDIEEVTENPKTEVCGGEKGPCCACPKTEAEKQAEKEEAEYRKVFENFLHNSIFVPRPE
IGF1R, sequence (P08069 741-1367 partner limits assumed, species assumed): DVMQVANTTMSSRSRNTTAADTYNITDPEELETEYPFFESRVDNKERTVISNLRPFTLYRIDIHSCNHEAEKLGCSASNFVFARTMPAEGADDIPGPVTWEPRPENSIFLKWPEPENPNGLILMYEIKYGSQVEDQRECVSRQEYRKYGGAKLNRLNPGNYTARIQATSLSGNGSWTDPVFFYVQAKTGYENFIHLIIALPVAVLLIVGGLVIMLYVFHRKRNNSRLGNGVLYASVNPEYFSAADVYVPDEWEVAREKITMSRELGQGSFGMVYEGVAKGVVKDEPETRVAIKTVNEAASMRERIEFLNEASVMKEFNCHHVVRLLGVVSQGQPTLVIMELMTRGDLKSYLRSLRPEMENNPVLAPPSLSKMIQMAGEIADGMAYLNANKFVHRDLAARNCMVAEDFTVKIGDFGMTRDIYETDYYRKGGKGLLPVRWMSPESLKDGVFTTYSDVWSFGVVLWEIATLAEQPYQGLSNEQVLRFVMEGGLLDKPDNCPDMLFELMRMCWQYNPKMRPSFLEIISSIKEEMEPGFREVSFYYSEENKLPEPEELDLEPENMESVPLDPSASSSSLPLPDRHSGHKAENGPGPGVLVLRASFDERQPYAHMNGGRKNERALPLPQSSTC

## CN=[N+](C)[O-] [AOM, azoxymethane]
[1]; LOI(+) mice
  ACF per colon: 19.8±2.2 ACF per colon
[1]; LOI(−) mice
  ACF per colon: 12.4±0.9 ACF per colon

## insulin-like growth factor 2 [IGF2]
Mouse ES cells; 3 hours
  increase in Cdc6 gene expression: 50%
Mouse ES cells; 6 hours
  increase in Cdc6 gene expression: 56%
Mouse ES cells; 10 hours
  increase in Cdc6 gene expression: 40%
Mouse ES cells; 24 hours
  increase in Cdc6 gene expression: 25%
Akt/PKB; LOI(+) MEF cells, IGF2 doses above 400 ng/ml
  Akt signal at higher IGF2 doses: progressively more transient and less pronounced
Akt/PKB; LOI(+) MEF cells, lowest IGF2 concentration 400 ng/ml
  duration of sustained Akt activation: > 120 min
Akt/PKB; LOI(−) MEF cells, IGF2 400, 800 and 1600 ng/ml
  return of Akt activation to the baseline: ≤ 90 min
IGF1R
  Kd: 1 to 10 nM
